Experimental data taken from ChEMBL document CHEMBL5614442, “Discovery, synthesis and biological evaluation of novel isoquinoline derivatives as potent indoleamine 2, 3-dioxygenase 1 and tryptophan 2, 3-dioxygenase dual inhibitors” (Eur J Med Chem, 2024).

Tests used:
Format in all cases: organism-based
Details in all cases: in vivo, 336 h, time 14 day
[1] = Toxicity in male C57BL/6 mouse implanted with mouse B16-F10 cells assessed as effect on liver morphology at 100 mg/kg, ip administered once daily for 14 days by H and E staining based analysis
[2] = Toxicity in male C57BL/6 mouse implanted with mouse B16-F10 cells assessed as body weight loss at 100 mg/kg, ip administered once daily for 14 days
[3] = Toxicity in male C57BL/6 mouse implanted with mouse B16-F10 cells assessed as effect on lung morphology at 100 mg/kg, ip administered once daily for 14 days by H and E staining based analysis
[4] = Toxicity in male C57BL/6 mouse implanted with mouse B16-F10 cells assessed as effect on kidney morphology at 100 mg/kg, ip administered once daily for 14 days by H and E staining based analysis
[5] = Toxicity in male C57BL/6 mouse implanted with mouse B16-F10 cells assessed as effect on spleen morphology at 100 mg/kg, ip administered once daily for 14 days by H and E staining based analysis
[6] = Toxicity in male C57BL/6 mouse implanted with mouse B16-F10 cells assessed as effect on heart morphology at 100 mg/kg, ip administered once daily for 14 days by H and E staining based analysis

Measured: Activity

Cn1cc(C[C@H](N)C(=O)O)c2ccccc21 [(L)-1-METHYLTRYPTOPHAN]
Non-Toxic: all assays above
